≈ marks a conversion by molar mass, not a printed value.
How the values were obtained:
MERS coronavirus = MERS coronavirus patients; cited from earlier work
Norovirus = Norovirus tests; assay type: cell-based; settings: one of the Norovirus tests; read-out: ECso
Source text: (§1) It is important to understand that mycophenolic acid's anti-viral effect is likely to require a small fraction (about 1-2% or less) of the clinical dose which is approved and commonly used for prevention of transplant rejection. For instance, Chan et al., 2013, p. […] For instance, in one of the Norovirus tests we document here, ECso of 0.151 mcg/mL was reported. Even less mycophenolic acid would be needed to treat viruses such as Influenza A HNI and RSV in which we report ECso <0.10 mcg/ml. Dramatically lower doses may suffice for mycophenolic acid. Therefore, it is not only possible to achieve adequate body levels of mycophenolic acid to treat these viruses clinically, but also a small fraction of the current clinical dose may be more than adequate. To et al, 2016 also presented data on page 1812 supporting these conclusions.

Influenza A HNI = assay: antiviral EC50 against Influenza A; assay type: cell-based; settings: Influenza A virus, read-out: ECso
RSV = assay: antiviral EC50 against RSV; assay type: cell-based; settings: human respiratory syncytial virus, read-out: ECso
Source text: as §1

[1] = tested on: Influenza A(H1N1) strain A/WSN/1933; settings: Chan et al. (2013); cited from earlier work
[2] = tested on: pandemic flu H/415, A/Hong Kong/415742/2009, A(HINI)pdm09; settings: To et al. (2016); cited from earlier work
[3] = tested on: seasonal influenza A(H3N2) virus; settings: To et al. (2016); cited from earlier work
[4] = tested on: avian-origin influenza A (H7N9); settings: To et al. (2016); cited from earlier work
virus = settings: cited from earlier work

SMILES | mortality (MERS coronavirus) | EC50 (Norovirus) [µg/mL] | EC50 (Influenza A HNI) [µg/mL] | EC50 (RSV) [µg/mL] | effectiveness against virus [1] | effectiveness against virus [2] | effectiveness against virus [3] | effectiveness against virus [4] | EC so (virus; Chan et al., 2013, p. 612) [µg/mL] | local concentrations at usual clinical doses, greater than needed (virus; usual clinical doses of mycophenolic acid, Chan et al., 2013)
COc1c(C)c2c(c(O)c1C/C=C(\C)CCC(=O)OCCN1CCOCC1)C(=O)OC2 [mycophenolate mofetil, 2-morpholinoethyl ester of mycophenolic acid] | no mortality | – | – | – | – | – | – | – | – | –
COc1c(C)c2c(c(O)c1C/C=C(\C)CCC(=O)O)C(=O)OC2 [mycophenolic acid, 6-(4-hydroxy-6-methoxy-7-methyl-3-oxo-1,3-dihydroisobenzofuran-5-yl)-4-methyl-hex-4-enoic acid] | – | 0.151 (≈ 0.471 µM) | < 0.1 | < 0.1 | effectiveness | effective | effective | effective | 0.17 | 60-300 ×

Source: patent US20250161262A1, “Pharmaceutical Compositions and Methods for Treating Covid” (priority 2022, published 2025)
